Our source for the Activity, inhibition and IC50 values is ChEMBL document CHEMBL5113482, “Discovery of fused benzimidazole-imidazole autophagic flux inhibitors for treatment of triple-negative breast cancer” (Eur J Med Chem, 2022).

Activity calls are given as the source filed them. The rule behind the calls is not given here.

The test system of test [1] is MDA-MB-468. Put plainly: Cell cycle arrest in human MDA-MB-468 cells assessed as reduction in cyclin B expression measured after 48 hrs by Western blot analysis. Format: functional, cell-based. The note with it: dose 5-20 µM, DDE = dose-dependent effect. In general terms: A western blot detects proteins with antibodies after separation by electrophoresis.
For test [2], the system named is MDA-MB-231. The test is described as follows: Induction of DNA damage in human MDA-MB-231 cells assessed as increase in gamma-H2AX accumulation measured after 48 hrs by immunofluorescence analysis. Format: functional, cell-based.
Test [3] has as its target Serine-protein kinase ATM (Homo sapiens) (UniProt Q13315). The test is described as follows: Activation of ATM phosphorylation in human MDA-MB-231 cells at 5 to 20 uM measured after 6 to 48 hrs by Western blot analysis. Format: cell-based. The note with it: filed as activator, dose 5-20 µM, time 6-48 hrs.
For test [4], the system named is MDA-MB-468. Put plainly: Cell cycle arrest in human MDA-MB-468 cells assessed as reduction in CDK2 expression measured after 48 hrs by Western blot analysis. Format: functional, cell-based. The note with it: dose 5-20 µM, DDE = dose-dependent effect.
The subject of test [5] is MDA-MB-231. Put plainly: Antitumor activity against human MDA-MB-231 cells xenografted in ip dosed NOD/SCID mouse assessed as upregulation of PARP expression administered at 3 days interval for 24 days and measured on day 25 by Western blot analysis. Format: functional, organism-based. The conditions noted are these: dose 5-15 mg/kg, time 25.0 day, DDE = dose-dependent effect.

Test [6] concerns MDA-MB-231. Put plainly: Antiproliferative activity against human MDA-MB-231 cells assessed as reduction in Ki67 expression measured after 48 hrs by immunofluorescence analysis. Format: functional, cell-based.
For test [7], the system named is MDA-MB-468. Put plainly: Induction of DNA damage in human MDA-MB-468 cells assessed as reduction in RAD51 expression measured after 6 to 48 hrs by Western blot analysis. Format: functional, cell-based. The conditions noted are these: dose 5-20 µM, time 6-48 hrs, DDE = dose-dependent effect.
Test [8] relates to MDA-MB-231. The test is described as follows: Induction of apoptosis in human MDA-MB-231 cells assessed as increase in Bax expression measured after 48 hrs by Western blot analysis. Format: functional, cell-based. The conditions noted are these: dose 5-20 µM, DDE = dose-dependent effect.
For test [9], the system named is MDA-MB-468. Put plainly: Cell cycle arrest in human MDA-MB-468 cells assessed as reduction in cyclin A expression measured after 48 hrs by Western blot analysis. Format: functional, cell-based. The note with it: dose 5-20 µM, DDE = dose-dependent effect.
Test [10] relates to MDA-MB-231. The test is described as follows: Antitumor activity against human MDA-MB-231 cells xenografted in NOD/SCID mouse assessed as reduction in Ki67 expression at 5 to 15 mg/kg, ip administered at 3 days interval for 24 days and measured on day 25 by immunohistochemical analysis. Format: functional, organism-based. The note with it: dose 5-15 mg/kg, time 25.0 day.
Test [11] deals with MDA-MB-468. Put plainly: Induction of DNA damage in human MDA-MB-468 cells assessed as reduction in BRCA2 expression measured after 6 to 48 hrs by Western blot analysis. Format: functional, cell-based. The conditions noted are these: dose 5-20 µM, time 6-48 hrs, DDE = dose-dependent effect.
The subject of test [12] is MDA-MB-468. The test is described as follows: Inhibition of autophagic flux in human MDA-MB-468 cells assessed as increase in nuclear p62 expression measured after 48 hrs by immunofluorescence analysis. Format: functional, cell-based. The conditions noted are these: dose 5-20 µM, DDE = dose-dependent effect.
Test [13] has as its system MDA-MB-468. The test is described as follows: Cell cycle arrest in human MDA-MB-468 cells assessed as reduction in CDK1 expression measured after 48 hrs by Western blot analysis. Format: functional, cell-based. The note with it: dose 5-20 µM, DDE = dose-dependent effect.
Test [14] concerns MDA-MB-231. Put plainly: Induction of apoptosis in human MDA-MB-231 cells assessed as increase in cleaved PARP expression measured after 48 hrs by Western blot analysis. Format: functional, cell-based. The note with it: dose 5-20 µM, DDE = dose-dependent effect.
In test [15] the test system is MDA-MB-468. Put plainly: Induction of apoptosis in human MDA-MB-468 cells assessed as increase in cytochrome c expression measured after 48 hrs by Western blot analysis. Format: functional, cell-based. The note with it: dose 5-20 µM, DDE = dose-dependent effect.
Test [16] concerns MDA-MB-468. Put plainly: Induction of mitochondrial membrane potential loss in human MDA-MB-468 cells at 20 uM measured after 48 hrs by JC-1 staining based assay relative to control. Format: functional.
The test system of test [17] is PANC-1. The test is described as follows: Antiproliferative activity against human PANC cells assessed as cell growth inhibition measured after 48 hrs by MTT assay. The conditions noted are these: PANC-1, 48 h. Format: functional, cell-based. Background: Tetrazolium assays rely on reduction of a dye to a coloured formazan, in cell work by metabolically active cells.

The subject of test [18] is MDA-MB-231. Put plainly: Inhibition of autophagic flux in human MDA-MB-231 cells assessed as increase in cytoplasmic p62 expression measured after 48 hrs by Western blot analysis. Format: functional, cell-based. The conditions noted are these: dose 5-20 µM, DDE = dose-dependent effect.
The test system of test [19] is MDA-MB-231. The test is described as follows: Cell cycle arrest in human MDA-MB-231 cells assessed as reduction in cyclin B expression measured after 48 hrs by Western blot analysis. Format: functional, cell-based. The note with it: dose 5-20 µM, DDE = dose-dependent effect.
The subject of test [20] is MDA-MB-231. Put plainly: Antitumor activity against human MDA-MB-231 cells xenografted in ip dosed NOD/SCID mouse assessed as upregulation of LC3B-II expression administered at 3 days interval for 24 days and measured on day 25 by Western blot analysis. Format: functional, organism-based. The conditions noted are these: dose 5-15 mg/kg, time 25.0 day, DDE = dose-dependent effect.

In test [21] the target is T1, Structural maintenance of chromosomes protein 1A (Homo sapiens) (UniProt Q14683).
T1 sequence (whole entry): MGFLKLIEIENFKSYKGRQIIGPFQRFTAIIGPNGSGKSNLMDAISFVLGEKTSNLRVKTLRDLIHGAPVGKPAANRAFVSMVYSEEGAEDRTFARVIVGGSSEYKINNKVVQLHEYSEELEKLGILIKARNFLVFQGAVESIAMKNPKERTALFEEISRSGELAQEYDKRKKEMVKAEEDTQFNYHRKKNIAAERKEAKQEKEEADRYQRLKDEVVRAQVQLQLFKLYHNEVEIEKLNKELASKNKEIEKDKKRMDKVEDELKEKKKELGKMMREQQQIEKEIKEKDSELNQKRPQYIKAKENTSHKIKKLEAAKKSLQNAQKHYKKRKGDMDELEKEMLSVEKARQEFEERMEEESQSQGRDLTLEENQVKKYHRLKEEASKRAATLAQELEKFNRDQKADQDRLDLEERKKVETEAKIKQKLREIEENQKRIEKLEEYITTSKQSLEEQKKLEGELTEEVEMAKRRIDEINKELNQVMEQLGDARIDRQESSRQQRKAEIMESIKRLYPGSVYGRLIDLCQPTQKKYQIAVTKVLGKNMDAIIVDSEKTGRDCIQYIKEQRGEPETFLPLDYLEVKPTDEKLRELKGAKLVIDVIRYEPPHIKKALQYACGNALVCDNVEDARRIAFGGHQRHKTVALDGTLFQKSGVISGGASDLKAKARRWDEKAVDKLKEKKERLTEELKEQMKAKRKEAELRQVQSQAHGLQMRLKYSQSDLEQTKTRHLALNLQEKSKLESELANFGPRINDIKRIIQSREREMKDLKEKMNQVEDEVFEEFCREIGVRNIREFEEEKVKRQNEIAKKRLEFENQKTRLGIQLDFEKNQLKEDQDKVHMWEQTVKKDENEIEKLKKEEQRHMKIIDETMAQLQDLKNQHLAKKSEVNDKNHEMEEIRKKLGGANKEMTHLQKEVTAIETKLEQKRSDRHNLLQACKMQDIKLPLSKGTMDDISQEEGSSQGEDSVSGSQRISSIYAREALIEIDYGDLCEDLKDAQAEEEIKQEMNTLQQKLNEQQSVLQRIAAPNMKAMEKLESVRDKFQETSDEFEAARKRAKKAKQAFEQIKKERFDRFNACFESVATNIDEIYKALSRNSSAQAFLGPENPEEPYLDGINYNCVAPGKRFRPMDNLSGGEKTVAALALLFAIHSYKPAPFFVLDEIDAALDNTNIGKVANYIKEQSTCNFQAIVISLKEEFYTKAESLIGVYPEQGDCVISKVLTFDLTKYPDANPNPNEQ
The test is described as follows: Activation of SMC1 phosphorylation in human MDA-MB-468 cells at 5 to 20 uM measured after 6 to 48 hrs by Western blot analysis. Format: cell-based. The note with it: filed as activator, dose 5-20 µM, time 6-48 hrs.

In test [22] the test system is MDA-MB-231. The test is described as follows: Antitumor activity against human MDA-MB-231 cells xenografted in NOD/SCID mouse assessed as reduction in cell count at 5 to 15 mg/kg, ip administered at 3 days interval for 24 days and measured on day 25 by H and E staining based assay. Format: functional, organism-based. The note with it: dose 5-15 mg/kg, time 25.0 day. (In general: Xenograft models place foreign cells or tissue in a host animal.)

Serine-protein kinase ATM (Homo sapiens), sequence (Q13315 whole entry): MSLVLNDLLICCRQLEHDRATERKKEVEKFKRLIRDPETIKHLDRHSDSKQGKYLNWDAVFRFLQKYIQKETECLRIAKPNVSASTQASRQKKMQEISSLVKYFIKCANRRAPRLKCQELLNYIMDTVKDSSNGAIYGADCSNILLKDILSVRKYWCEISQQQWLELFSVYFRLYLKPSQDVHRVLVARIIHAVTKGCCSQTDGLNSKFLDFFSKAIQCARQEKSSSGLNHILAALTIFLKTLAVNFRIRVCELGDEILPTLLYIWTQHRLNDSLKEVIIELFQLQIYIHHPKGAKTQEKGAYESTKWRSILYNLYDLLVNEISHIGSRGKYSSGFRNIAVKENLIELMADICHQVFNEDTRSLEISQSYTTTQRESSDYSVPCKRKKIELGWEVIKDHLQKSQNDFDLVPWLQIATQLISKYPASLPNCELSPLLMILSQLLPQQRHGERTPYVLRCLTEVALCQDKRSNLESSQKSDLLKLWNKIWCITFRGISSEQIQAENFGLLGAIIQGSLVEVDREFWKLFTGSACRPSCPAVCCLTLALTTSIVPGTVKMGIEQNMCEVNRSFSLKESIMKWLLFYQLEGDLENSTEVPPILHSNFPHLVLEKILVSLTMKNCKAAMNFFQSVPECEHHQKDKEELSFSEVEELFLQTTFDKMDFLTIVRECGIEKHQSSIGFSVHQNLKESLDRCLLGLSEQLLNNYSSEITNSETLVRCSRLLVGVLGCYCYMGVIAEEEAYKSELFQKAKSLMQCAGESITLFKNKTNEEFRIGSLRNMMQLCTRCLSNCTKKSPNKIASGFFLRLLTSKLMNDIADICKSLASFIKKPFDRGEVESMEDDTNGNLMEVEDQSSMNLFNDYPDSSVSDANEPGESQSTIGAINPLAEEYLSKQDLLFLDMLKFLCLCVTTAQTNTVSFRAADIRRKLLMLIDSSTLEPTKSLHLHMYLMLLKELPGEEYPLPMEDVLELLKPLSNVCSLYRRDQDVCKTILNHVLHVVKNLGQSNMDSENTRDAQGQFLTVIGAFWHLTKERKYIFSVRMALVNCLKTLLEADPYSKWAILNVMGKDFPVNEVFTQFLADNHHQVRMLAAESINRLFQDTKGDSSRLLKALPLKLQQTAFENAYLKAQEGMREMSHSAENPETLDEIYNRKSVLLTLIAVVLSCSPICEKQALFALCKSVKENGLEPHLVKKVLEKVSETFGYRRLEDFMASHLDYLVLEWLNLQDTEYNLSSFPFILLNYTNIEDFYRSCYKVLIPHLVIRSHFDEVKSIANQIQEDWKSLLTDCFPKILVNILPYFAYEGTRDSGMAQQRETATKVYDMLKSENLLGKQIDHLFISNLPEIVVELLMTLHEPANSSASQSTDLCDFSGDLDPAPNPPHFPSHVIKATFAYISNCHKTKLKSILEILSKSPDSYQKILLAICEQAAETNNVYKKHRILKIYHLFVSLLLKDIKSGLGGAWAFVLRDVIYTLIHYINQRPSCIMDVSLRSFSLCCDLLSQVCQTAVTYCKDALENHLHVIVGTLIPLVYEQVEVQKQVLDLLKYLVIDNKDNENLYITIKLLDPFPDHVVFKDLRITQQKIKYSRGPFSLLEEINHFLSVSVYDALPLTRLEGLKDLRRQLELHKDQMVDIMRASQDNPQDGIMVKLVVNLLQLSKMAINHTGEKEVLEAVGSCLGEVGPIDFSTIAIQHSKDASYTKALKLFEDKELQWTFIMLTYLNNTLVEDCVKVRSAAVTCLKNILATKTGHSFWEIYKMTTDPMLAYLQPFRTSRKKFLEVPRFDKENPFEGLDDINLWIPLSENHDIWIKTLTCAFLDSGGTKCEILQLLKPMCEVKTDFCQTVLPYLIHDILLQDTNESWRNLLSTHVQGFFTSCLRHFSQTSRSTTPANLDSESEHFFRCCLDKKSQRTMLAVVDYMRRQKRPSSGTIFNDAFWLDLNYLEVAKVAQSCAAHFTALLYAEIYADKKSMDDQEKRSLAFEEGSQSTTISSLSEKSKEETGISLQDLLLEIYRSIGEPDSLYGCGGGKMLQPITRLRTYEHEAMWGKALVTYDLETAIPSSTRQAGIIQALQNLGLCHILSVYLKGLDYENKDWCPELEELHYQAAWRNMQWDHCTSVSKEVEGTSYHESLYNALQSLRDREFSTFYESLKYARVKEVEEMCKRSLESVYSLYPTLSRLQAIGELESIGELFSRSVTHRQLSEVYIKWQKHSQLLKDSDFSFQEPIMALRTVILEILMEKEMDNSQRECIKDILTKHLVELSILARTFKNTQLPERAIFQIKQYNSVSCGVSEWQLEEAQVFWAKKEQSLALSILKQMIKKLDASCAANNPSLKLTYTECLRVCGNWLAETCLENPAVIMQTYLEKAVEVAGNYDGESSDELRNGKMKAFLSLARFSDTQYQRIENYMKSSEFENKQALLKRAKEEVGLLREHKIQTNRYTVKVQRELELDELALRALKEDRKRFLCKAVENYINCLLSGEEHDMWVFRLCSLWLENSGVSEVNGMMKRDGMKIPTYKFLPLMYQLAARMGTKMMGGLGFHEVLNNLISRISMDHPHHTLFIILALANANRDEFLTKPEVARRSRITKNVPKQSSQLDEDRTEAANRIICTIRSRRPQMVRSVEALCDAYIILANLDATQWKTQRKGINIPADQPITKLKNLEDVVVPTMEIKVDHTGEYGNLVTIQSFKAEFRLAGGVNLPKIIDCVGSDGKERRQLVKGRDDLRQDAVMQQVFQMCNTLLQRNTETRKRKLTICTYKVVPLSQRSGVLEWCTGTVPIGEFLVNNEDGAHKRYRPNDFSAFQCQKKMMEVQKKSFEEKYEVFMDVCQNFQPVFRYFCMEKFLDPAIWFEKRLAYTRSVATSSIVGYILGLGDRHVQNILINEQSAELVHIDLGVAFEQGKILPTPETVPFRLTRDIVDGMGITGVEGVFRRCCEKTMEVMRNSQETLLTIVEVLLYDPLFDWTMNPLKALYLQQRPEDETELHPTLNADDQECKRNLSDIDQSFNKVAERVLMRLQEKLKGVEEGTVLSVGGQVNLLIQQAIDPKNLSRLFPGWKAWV

By IC50 is commonly meant the point on the concentration scale where inhibition reaches its midpoint. `O=C(NC1CCCCC1)c1[nH]cnc1-c1nc2ccccc2[nH]1`: the Activity entry in [1], in [4], in [5], in [7], in test [8] and in test [9] was “Dde” throughout. For the same compound, the Activity result in test [11] is “Dde”; in test [13] it was “Dde”; in test [14], “Dde”; in test [15] it was “Dde”; in test [16], 50%; in [19], “Dde”. Besides, in test [20], the Activity entry is “Dde”. Further, the result in [2], in [3], in test [6], in test [10], in [21] and in [22] was Active. Further, the inhibition entry in test [12] and in test [18] was “Dde” in each case. Further, in [17], the IC50 is 19.2 µM.
